Results taken from patent US9359298B2, “Cajanine structure analogous compound, preparation method and use” (INSTITUTE OF MEDICINAL BIOTECHNOLOGY, CHINESE ACADEMY OF …, priority 2011, dated 2016).
Values after ≈ are worked out from the molar mass of the structure shown. Read-outs that look alike come from different tables or passages of the source.

Columns and labels:
Format in all cases: cell-based
[1] = system: Influenza A virus (hanfang359/95); assay: Determination of anti-influenza virus activity (CPE in MDCK cells); conditions: for IC50: Influenza A virus, MDCK, 36 h; for anti-influenza virus activities compared with the lead compound cajanine: statement in words
HIV-1 III B virus = assay: Anti-HIV activity assay (P24 antigen in MT-4 cells); conditions: for IC50: Human immunodeficiency virus 1, MT4, 96 h, read-out: HIV IC50; for anti-HIV viral activity: statement in words
Coxsackie virus B6 = assay: Coxsackie virus activity assay (CPE in Vero cells); conditions: Vero
HCV = assay: Anti-hepatitis C virus (HCV) activity assay (HCV RNA in Huh7.5 cells); conditions: for EC50: Hepatitis C virus, Huh7.5, 72 h, read-out: HCV EC50; for anti-HCV viral activity: statement in words
Method: Inoculate Huh7.5 cells into 96-well plates to a density of 3×10^4 cells/cm^2, culture for 24h, infect the cells with 45 IU/cell HCV supernatant, meanwhile, add drug solutions or solvent control for treatment.

[2] = MT-4 cells, HIV-1 III B 100TCID50, 96 h, P24 antigen
[3] = read-out: COX-B6 IC50, Vero cells, about 100TCID50, CPE, Reed-Muench
[4] = Huh7.5 cells, 72 h, HCV RNA by RT-PCR, Reed-Muench

Structure (SMILES)	IC50 [1]	IC50 (HIV-1 III B virus; [2])	anti-HIV viral activity (HIV-1 III B virus)	IC50 (Coxsackie virus B6; [3])	EC50 (HCV; [4])	anti-HCV viral activity (HCV)	anti-influenza virus activities compared with the lead compound cajanine [1]	IC50 (HIV-1 III B virus)	IC50 (Coxsackie virus B6; read-out: COX-B6 IC50)	EC50 (HCV)
COC(=O)c1c(/C=C/c2ccccn2)cc(OC)c(CC=C(C)C)c1O [Compound 8t, methyl 2-hydroxy-3-isopentenyl-4-methoxy-6-[(E)-2-(pyrid-2-yl)ethenyl]benzoate]	0.12 µg/mL (≈ 0.34 µM)	0.6 µg/mL (≈ 1.7 µM)	stronger anti-HIV, HCV viral activities	1.32 µg/mL (≈ 3.73 µM)	0.64 µg/mL (≈ 1.81 µM)	stronger anti-HIV, HCV viral activities	–	–	–	–
COC(=O)c1c(/C=C/c2cc(OC)c(OC)c(OC)c2)cc(OC)c(CC=C(C)C)c1O [Compound 8u, methyl 2-hydroxy-3-isopentenyl-4-methoxy-6-[(E)-(3,4,5-trimethoxy-styryl)]benzoate]	0.11 µg/mL (≈ 0.249 µM)	1.49 µg/mL (≈ 3.37 µM)	stronger anti-HIV, HCV viral activities	1.65 µg/mL (≈ 3.73 µM)	0.67 µg/mL (≈ 1.51 µM)	stronger anti-HIV, HCV viral activities	–	–	–	–
COC(=O)c1c(/C=C/c2cc(OC)ccn2)cc(OC)c(CC=C(C)C)c1O [Compound 8v, methyl 2-hydroxy-3-isopentenyl-4-methoxy-6-[(E)-2-(4-methoxypyrid-2-yl)ethenyl]benzoate]	0.87 µg/mL (≈ 2.27 µM)	1.01 µg/mL (≈ 2.63 µM)	stronger anti-HIV, HCV viral activities	2.68 µg/mL (≈ 6.99 µM)	2.39 µg/mL (≈ 6.23 µM)	stronger anti-HIV, HCV viral activities	–	–	–	–
COC(=O)c1c(/C=C/c2ccccc2)cc(OC)c(CC=C(C)C)c1OC(=O)CN [Compound 24a]	2.31 µg/mL (≈ 5.64 µM)	1.79 µg/mL (≈ 4.37 µM)	–	3.21 µg/mL (≈ 7.84 µM)	0.98 µg/mL (≈ 2.39 µM)	–	–	–	–	–
COc1cc(/C=C/c2ccccc2)cc(OC(=O)CN)c1CC=C(C)C [Compound 24c, 2-isopentenyl-3-aminoacetoxy-5-[(E)styryl]anisole]	1.24 µg/mL (≈ 3.53 µM)	2.78 µg/mL (≈ 7.91 µM)	–	0.98 µg/mL (≈ 2.79 µM)	0.94 µg/mL (≈ 2.67 µM)	–	–	–	–	–
COC(=O)c1c(/C=C/c2ccccc2)cc(OC)c(CC=C(C)C)c1OC(=O)C1CCCN1 (centres unmarked) [Compound 24d]	0.12 µg/mL (≈ 0.267 µM)	0.81 µg/mL (≈ 1.8 µM)	–	0.45 µg/mL (≈ 1 µM)	0.87 µg/mL (≈ 1.94 µM)	–	–	–	–	–
COc1cc(/C=C/c2ccccc2)cc(OC(=O)C2CCCN2)c1CC=C(C)C (centres unmarked) [Compound 24f]	0.13 µg/mL (≈ 0.332 µM)	1.01 µg/mL (≈ 2.58 µM)	–	0.21 µg/mL (≈ 0.536 µM)	0.69 µg/mL (≈ 1.76 µM)	–	significantly stronger than the lead compound cajanine	–	–	–
COC(=O)c1c(/C=C/c2ccccc2)cc(OC)c(CC=C(C)C)c1OC(C)=O [Compound 24g, methyl 2-acetoxy-3-isopentenyl-4-methoxy-6-[(E)-styryl]benzoate]	0.25 µg/mL (≈ 0.634 µM)	0.33 µg/mL (≈ 0.837 µM)	–	1.65 µg/mL (≈ 4.18 µM)	0.83 µg/mL (≈ 2.1 µM)	–	significantly stronger than the lead compound cajanine	–	–	–
COc1cc(/C=C/c2ccccc2)cc(OC(C)=O)c1CC=C(C)C [Compound 24i]	0.15 µg/mL (≈ 0.446 µM)	2.09 µg/mL (≈ 6.21 µM)	–	0.92 µg/mL (≈ 2.73 µM)	0.99 µg/mL (≈ 2.94 µM)	–	significantly stronger than the lead compound cajanine	–	–	–
COC(=O)c1c(/C=C/c2ccccc2)cc(OC)c(CC=C(C)C)c1OC(=O)c1cccnc1 [Compound 24j, 2-(pyridyl-3-formylox)-3-isopentenyl-4-methoxy-6-[(E)-styryl]-benzoate]	2.36 µg/mL (≈ 5.16 µM)	2.65 µg/mL (≈ 5.79 µM)	–	3.61 µg/mL (≈ 7.89 µM)	1.35 µg/mL (≈ 2.95 µM)	–	–	–	–	–
COc1cc(/C=C/c2ccccc2)cc(OC(=O)c2cccnc2)c1CC=C(C)C [Compound 24l, 2-isopentenyl-3-(pyridyl-3-formyloxy)-5-[(E)-styryl]anisole]	1.04 µg/mL (≈ 2.6 µM)	1.4 µg/mL (≈ 3.5 µM)	–	0.95 µg/mL (≈ 2.38 µM)	1.6 µg/mL (≈ 4.01 µM)	–	–	–	–	–
COC(=O)c1c(/C=C/c2ccccc2)cc(OC)c(CC=C(C)C)c1OC(=O)CN(C)C [Compound 24m, 2-(N,N-dimethylacetyloxy)-3-isopentenyl-4-methoxy-6-[(E)-styryl]benzoate]	6.52 µg/mL (≈ 14.9 µM)	2.6 µg/mL (≈ 5.94 µM)	–	3.46 µg/mL (≈ 7.91 µM)	0.8 µg/mL (≈ 1.83 µM)	–	–	–	–	–
COc1cc(/C=C/c2ccccc2)cc(OC(=O)CN(C)C)c1CC=C(C)C [Compound 24o, 2-isopentenyl-3-(N,N-dimethylacetoxy)-5-[(E)-styryl]anisole]	2.31 µg/mL (≈ 6.09 µM)	0.69 µg/mL (≈ 1.82 µM)	–	1.21 µg/mL (≈ 3.19 µM)	1.34 µg/mL (≈ 3.53 µM)	–	–	–	–	–
COC(=O)c1c(/C=C/c2ccccc2)cc(OC)c(CC=C(C)C)c1OC(=O)c1cnc[nH]1 [Compound 24p]	1.32 µg/mL (≈ 2.96 µM)	0.31 µg/mL (≈ 0.694 µM)	–	2.36 µg/mL (≈ 5.29 µM)	0.77 µg/mL (≈ 1.72 µM)	–	–	–	–	–
COc1cc(/C=C/c2ccccc2)cc(OC(=O)c2cnc[nH]2)c1CC=C(C)C [Compound 24r]	0.98 µg/mL (≈ 2.52 µM)	2.31 µg/mL (≈ 5.95 µM)	–	0.68 µg/mL (≈ 1.75 µM)	1.05 µg/mL (≈ 2.7 µM)	–	–	–	–	–
COC(=O)c1c(/C=C/c2ccccc2)cc(OC)c(CC=C(C)C)c1OCN [Compound 26a]	2.31 µg/mL (≈ 6.06 µM)	1.73 µg/mL (≈ 4.54 µM)	–	6.54 µg/mL (≈ 17.1 µM)	2.09 µg/mL (≈ 5.48 µM)	–	–	–	–	–
COc1cc(/C=C/c2ccccc2)cc(OCN)c1CC=C(C)C [Compound 26c, 2-isopentenyl-3-aminomethoxy-5-[(E)-styryl]anisole]	1.35 µg/mL (≈ 4.17 µM)	3.18 µg/mL (≈ 9.83 µM)	–	2.64 µg/mL (≈ 8.16 µM)	2.07 µg/mL (≈ 6.4 µM)	–	–	–	–	–
COC(=O)c1c(/C=C/c2ccccc2)cc(OC)c(CC=C(C)C)c1OCC1CNCCN1 (centres unmarked) [Compound 26d, methyl 2-(piperazin-2-yl)methoxy-3-isopentenyl-4-methoxy-6-[(E)-styryl]benzoate]	1.36 µg/mL (≈ 3.02 µM)	–	–	2.75 µg/mL (≈ 6.1 µM)	1.53 µg/mL (≈ 3.4 µM)	–	–	1.36 µg/mL (≈ 3.02 µM)	–	–
COc1cc(/C=C/c2ccccc2)cc(OCC2CNCCN2)c1CC=C(C)C (centres unmarked) [Compound 26f, 2-isopentenyl-3-(piperazin-2-yl)methoxy-5-[(E)-styryl]anisole]	0.68 µg/mL (≈ 1.73 µM)	1.61 µg/mL (≈ 4.1 µM)	–	0.98 µg/mL (≈ 2.5 µM)	1.39 µg/mL (≈ 3.54 µM)	–	significantly stronger than the lead compound cajanine	–	–	–
COC(=O)c1c(/C=C/c2ccccc2)cc(OC)c(CC=C(C)C)c1OC(=N)N [Compound 27a, 2-iso-ureido-3-isopentenyl-4-methoxy-6-[(E)-styryl]-benzoate]	1.32 µg/mL (≈ 3.35 µM)	2.48 µg/mL (≈ 6.29 µM)	–	2.34 µg/mL (≈ 5.93 µM)	1.34 µg/mL (≈ 3.4 µM)	–	–	–	–	–
COc1cc(/C=C/c2ccccc2)cc(OC(=N)N)c1CC=C(C)C [Compound 27c, 2-isopentenyl-3-isoureido-5-[(E)-styryl]anisole]	0.54 µg/mL (≈ 1.61 µM)	2.03 µg/mL (≈ 6.03 µM)	–	0.92 µg/mL (≈ 2.73 µM)	1.26 µg/mL (≈ 3.75 µM)	–	–	–	–	–
COC(=O)c1c(/C=C/c2ccccc2)cc(OC)c(CC=C(C)C)c1OC(=O)NN [Compound 29a, methyl 2-Hydrazinoformyloxy-3-isopentenyl-4-methoxy-6-[(E)-styryl]benzoate]	0.98 µg/mL (≈ 2.39 µM)	–	stronger anti-HIV, HCV viral activities	–	–	stronger anti-HIV, HCV viral activities	–	0.43 µg/mL (≈ 1.05 µM)	1.36 µg/mL (≈ 3.31 µM)	0.51 µg/mL (≈ 1.24 µM)
COc1cc(/C=C/c2ccccc2)cc(OC(=O)NN)c1CC=C(C)C [Compound 29c, 2-isopentenyl-3-hydrazinoformylox-5-[(E)-styryl]anisole]	0.24 µg/mL (≈ 0.681 µM)	–	–	–	–	–	significantly stronger than the lead compound cajanine	0.6 µg/mL (≈ 1.7 µM)	0.36 µg/mL (≈ 1.02 µM)	0.89 µg/mL (≈ 2.53 µM)
COC(=O)c1c(/C=C/c2ccccc2)cc(OC)c(CC=C(C)C)c1OC(=O)C(=O)O [Compound 31a, methyl 2-carboxyformylxy-3-isopentenyl-4-methoxy-6-[(E)-styryl]benzoate]	0.14 µg/mL (≈ 0.33 µM)	1.3 µg/mL (≈ 3.06 µM)	–	2.31 µg/mL (≈ 5.44 µM)	0.71 µg/mL (≈ 1.67 µM)	–	significantly stronger than the lead compound cajanine	–	–	–
CCOC(=O)C1=C[C@@H](OC(CC)CC)[C@H](NC(C)=O)[C@@H](N)C1 [Oseltamivirphosphate, reference compound]	0.22 µg/mL (≈ 0.704 µM)	–	–	–	–	–	–	–	–	–
NC(=O)c1ncn([C@@H]2O[C@H](CO)[C@@H](O)[C@H]2O)n1 [RBV, Ribavirin, reference compound]	0.59 µg/mL (≈ 2.42 µM)	–	–	412 µg/mL (≈ 1690 µM)	–	–	–	–	–	–
